Reference: patent publication US20240196893A1, “LOW TOXICITY COMPOUNDS FOR USE AS INSECTICIDES AND METHOD OF PRODUCING SAID COMPOUNDS” (UNIVERSIDADE DO PORTO, priority 2021, published 2024)

Key:
human keratinocytes = assay: Viability of human keratinocytes (resazurin); type: cell-based; settings: 50 μg/mL, 24 hours
Protocol: Results represent the mean±SEM of at least three independent experiments, each of them performed in triplicate: **<0.01, ***p<0.001.
The compound (6a) of the present application has no toxicity in human cells, contrarily to the ginkgolic acid (1), or the synthetic commercial insecticide evaluated as benchmark (chlorpyrifos) (FIG. 3), as assessed by cultivating human keratinocytes in the same cell density, exposing them to either compound (6a) or chlorpyrifos at the same concentration (50 μg/mL) and assessing cell viability after 24 hours using resazurin.

[1] = test system: insect effector caspase DRICE; assay: Caspase-like activity in insect cells (DEVD-aminoluciferin substrate); type: cell-based; settings: 50 μg/mL
Protocol: The compound (6a) of the present application presents a mechanism of action distinct of the commercial insecticide chlorpyrifos, which may be of interest as a strategy to overcome pesticide resistances. Specifically, the compound (6a) is capable of activating insect effector caspase DRICE (involved in the process of cell death), while the commercial insecticide is unable to trigger this effect and has no impact in this target (FIG. 4). This was evaluated by incubating cells with the same cellular density with the proluminescent substrate DEVD-aminoluciferin, which becomes […] after cleavage by effector caspases, being detected subsequently in a luminescence detector.

Sf9 cells [2] = settings: Sf9 insect cells, 100 μg/mL, prior studies; cited from earlier work
Sf9 cells [3] = assay: Viability of Sf9 insect cells (resazurin); type: cell-based, Spodoptera frugiperda
Description: Results represent the mean+SEM of at least three independent experiments, each of them performed in triplicate: *p<0.05, **p<0.01, ***p<0.001.

Row | SMILES | loss of cell viability (human keratinocytes) | caspase-like activity, increase over basal level [1] | loss of viability (Sf9 cells [2]) | activity in Sf9 insect cells (compared with compound 1) (Sf9 cells [3]; Sf9 insect cells) | loss of cell viability relative to chlorpyrifos (Sf9 cells [3]; Spodoptera frugiperda cells, 100 μg/mL, 24 hours, resazurin)
1 | CCOP(=S)(OCC)Oc1nc(Cl)c(Cl)cc1Cl [chlorpyrifos, O,O-diethyl O-(3,5,6-trichloropyridin-2-yl) phosphorothioate] | ca. 20% | no statistically significant changes |  |  | 
2 | CCCCCCC=CCCCCCCCCCc1cccc(O)c1C(=O)O [compound 1, 2-(heptadec-10-en-1-yl)-6-hydroxybenzoic acid] |  | no increase | ca. 75% |  | 
3 | CCCCCCC=CCCCCCCCCCc1cccc(OC)c1C(=O)O [compound 2, 2-(heptadec-10-en-1-yl)-6-methoxybenzoic acid] |  |  |  | lower activity | 
4 | CCCCCCCCCCCCNc1ccccc1C(=O)O [compound 6a, 2-(dodecylamino) benzoic acid] |  | 400% |  |  | more than the triple
